Test results published in patent publication EP1242382B1, “TRICYCLIC PROTEIN KINASE INHIBITORS” (Wyeth, priority 1999, dated 2001).
pIC50: −log10 of the molar value.

Molecular target: Mitogen Activated Protein Kinase (Mek-Erk) (Homo sapiens, UniProt P28482+Q02750)
Test: Mitogen Activated Protein Kinase (MAPK) two component coupled test procedure
Format: biochemical
Description: To evaluate inhibitors of the MAP (mitogen activated protein) kinase a two component coupled standard pharmacological test procedure, which measures phosphorylation of a serine/threonine residue in an appropriate sequence in the substrate in the presence and absence of a putative inhibitor, is used. Recombinant human MEK 1 (MAPKK) is first used to activate recombinant human ERK2 (MAPK) and the activated MAPK (ERK) is incubated with substrate (myelin basic protein peptide (MBPP) or Myc peptide) in the presence of ATP, Mg^+2 and radiolabeled ^33P ATP. The phosphorylated peptide is captured on a P 81 phosphocellulose filter (paper filter or embedded in microtiter plate) washed and counted by scintillation methods.
The peptide substrates used in the assay are MBPP, peptide substrate ([sequence]), or synthetic Myc substrate, ([sequence]•5 TFA). The recombinant enzymes used are prepared as GST fusion proteins of human ERK 2 and human MEK 1. […]
The reaction is run as follows in 50 mM Tris kinase buffer, pH 7.4 in a reaction volume of 50 ul. […] The filters are briefly air dried before addition of scintillant and samples are counted in the appropriate scintillation counter set up for reading ^33P isotope.
The raw data is captured as cpm. […] Mean cpm data is tabulated by group and % inhibition by a test compound is calculated as (corrected cpm control-corrected. cpm sample/control) X 100 = % inhibition).

Sequence of Mitogen Activated Protein Kinase (Mek-Erk) (Q02750 whole entry): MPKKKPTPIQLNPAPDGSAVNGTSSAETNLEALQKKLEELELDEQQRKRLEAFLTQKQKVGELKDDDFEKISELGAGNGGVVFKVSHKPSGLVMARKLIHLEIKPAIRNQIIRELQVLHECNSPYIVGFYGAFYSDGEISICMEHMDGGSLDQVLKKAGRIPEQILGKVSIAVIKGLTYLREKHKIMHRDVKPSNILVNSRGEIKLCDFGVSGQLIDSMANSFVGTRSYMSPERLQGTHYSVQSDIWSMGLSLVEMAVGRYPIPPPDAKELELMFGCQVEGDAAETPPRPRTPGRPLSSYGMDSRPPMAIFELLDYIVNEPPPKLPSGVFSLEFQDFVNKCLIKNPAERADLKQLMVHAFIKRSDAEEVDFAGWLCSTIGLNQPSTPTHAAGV
Sequence of Mitogen Activated Protein Kinase (Mek-Erk) (P28482 2-360): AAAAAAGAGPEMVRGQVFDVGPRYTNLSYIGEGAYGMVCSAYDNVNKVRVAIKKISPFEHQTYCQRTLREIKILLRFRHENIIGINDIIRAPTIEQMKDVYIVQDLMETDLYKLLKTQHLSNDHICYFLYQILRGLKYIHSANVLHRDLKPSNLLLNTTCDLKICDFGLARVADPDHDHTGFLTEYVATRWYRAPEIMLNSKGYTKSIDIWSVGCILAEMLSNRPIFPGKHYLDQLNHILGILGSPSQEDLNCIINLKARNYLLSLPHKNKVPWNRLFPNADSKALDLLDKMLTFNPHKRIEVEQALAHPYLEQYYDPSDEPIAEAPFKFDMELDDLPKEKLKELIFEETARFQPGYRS

| pIC50 | SMILES |
| --- | --- |
| < 5.00 | N#Cc1cnc2cc3c(cc2c1Nc1ccc(Oc2ccccc2)cc1)ncn3CCN1CCOCC1 [Example 58, 3-[2-(4-Morpholinyl)ethyl]-8-(4-phenoxyanilino)-3H-imidazo[4,5-g]quinoline-7-carbonitrile] |
| < 4.00 | N#Cc1cnc2c(oc3ccccc32)c1Nc1ccc(Oc2ccccc2)cc1 [Example 88, 4-(4-Phenoxyphenylamino)benzo[4,5]furo[3,2-b]pyridine-3-carbonitrile] |
